Data: patent publication US20260041679A1, “METHOD OF TREATING HYPERTENSION WITH THE ALDOSTERONE SYNTHASE INHIBITOR BAXDROSTAT” (CINCOR PHARMA, INC., priority 2022, published 2026)
Where two headings read alike, the source gives them in different places.

Tests used:
Assay type in all cases: in vivo, human
[1] = Multiple ascending dose study, safety (Example 2); settings: 0.5 to 5.0 mg once daily, 10 days
Experimental: (§1) This randomized, double-blind, placebo-controlled phase 1 study evaluated the safety, pharmacokinetics, and pharmacodynamics of multiple ascending doses of baxdrostat in healthy volunteers. Fifty-six subjects were randomized to receive oral baxdrostat (0.5, 1.5, 2.5, or 5.0 mg) or placebo once daily for ten days and were placed on either a low salt or normal salt diet for the duration of the study. In particular, subjects were randomized into 5 cohorts to receive baxdrostat or placebo once daily for 10 days. Cohorts 1 and 2 were placed on a low salt diet to stimulate aldosterone production and were administered 2.5 or 5.0 mg oral baxdrostat, respectively. Cohorts 1 and 2 also underwent an adrenocorticotropic hormone (ACTH) challenge to increase aldosterone and cortisol levels to evaluate the specificity of baxdrostat for targeting aldosterone synthase. Cohorts 3, 4, and 5 were placed on a normal salt diet and were administered 1.5, 2.5, or 0.5 mg oral baxdrostat, respectively. Blood samples were collected prior to and after dosing on days 1 and 10 for measurement of plasma baxdrostat concentrations to characterize single-dose and steady-state pharmacokinetics. Pharmacodynamic measurements included plasma aldosterone, cortisol, and electrolytes. Safety assessments included physical examination, electrocardiograms, orthostatic vital signs, and clinical laboratory evaluations.

[2] = Plasma PK of baxdrostat and baxdrostat-M in the metformin crossover study (Example 6A); settings: single 10-mg dose of baxdrostat
Experimental: This study was designed as a phase 1, randomized, open-label, 2-period, crossover trial. Each subject participated in a screening period of up to 26 days followed by 2 inpatient treatment periods and a follow-up phone call. […] Plasma samples were extracted by protein precipitation with methanol, followed by analysis by LC-MS/MS with ESI(+) and MRM. Reversed-phase chromatographic separation with a mobile phase gradient of 20% to 90% was utilized, and total run time was approximately 5 minutes. […] PK parameters were calculated using noncompartmental methods with SAS software, version 9.4 (SAS Institute). […] Tmax; […] AUC0-t; AUC0-inf, AUC0-inf extrapolated; λz; and t1/2. Plasma AUC0-72 was assessed only for baxdrostat and baxdrostat-M. […] Urine PK parameters included Ae, renal clearance (calculated as Ae/AUC), and the fraction of dose excreted renally.

[3] = Study 124 Part 1: safety, adverse events and serum potassium
From the text: The safety objectives for both Parts 1 and 2 are to evaluate vital signs, standing blood pressure, heart rate, physical examinations, ECG, body weight, and clinical laboratory assessments, including standard safety chemistry panel, hematology, coagulation, and urinalysis.

[4] = Safety in subjects with varying degrees of renal function (Example 4)
Experimental: Safety was assessed throughout the study based on adverse events, physical examinations, ECG, seated and orthostatic vital signs, weight measurements, and clinical laboratory evaluations

[5] = Multiple ascending dose study, pharmacokinetics (Example 2)
Experimental: as §1

[6] = Part 1, 0.5 mg baxdrostat, n = 63
[7] = Part 1, 1 mg baxdrostat, n = 62
[8] = Part 1, 2 mg baxdrostat, n = 60
[9] = control eGFR ≥60 mL/min (n = 10)
[10] = moderate to severe renal impairment (n = 11)
[11] = single 10 mg, all renal function groups

Q: Which results are given for `CCC(=O)N[C@@H]1CCCc2c(-c3ccc4c(c3)CCC(=O)N4C)cncc21` [baxdrostat, (R)—N-(4-(1-methyl-2-oxo-1,2,3,4-tetrahydroquinolin-6-yl)-5,6,7,8-tetrahydroisoquinolin-8-yl) propionamide]?
A: deaths or serious adverse events [1]: no deaths or serious adverse events; severity of treatment-emergent adverse events [1]: mild in severity; AUC% extrapolated ([2]; human): 8.36%; AUC(0-t) ([2]; human, read-out: AUC0-24, Mean): 1.66 µg·h/mL; AUC(0-t) ([2]; human, read-out: AUC0-72, GM): 2.79 µg·h/mL; AUC(0-t) ([2]; human, read-out: AUC0-72, Mean): 2.87 µg·h/mL; AUC(0-inf) ([2]; human, read-out: AUC0-inf, GM): 2.92 µg·h/mL; AUC(0-inf) ([2]; human, read-out: AUC0-inf, Mean): 3.03 µg·h/mL; Cmax ([2]; human, read-out: Cmax, GM): 0.117 µg/mL; Cmax ([2]; human, read-out: Cmax, Mean): 0.119 µg/mL; Tmax ([2]; human, read-out: Tmax, GM): 1.54 h; Tmax ([2]; human, read-out: Tmax, Mean): 1.68 h; AUC0-24, GM [2]: 1.637461 µg·h/mL; λz, GM [2]: 0.032 h⁻¹; λz, Mean [2]: 0.033 h⁻¹; Mean Change in Serum Potassium From Baseline at Week 8 (SD) ([3]; 0.5 mg): −0.07 (0.37) mmol/L; Mean Change in Serum Potassium From Baseline at Week 8 (SD) ([3]; 1 mg): 0.26 (0.47) mmol/L; Mean Change in Serum Potassium From Baseline at Week 8 (SD) ([3]; 2 mg): 0.12 (0.48) mmol/L; increase in mean potassium ([3]; 2 mg dose): 0.1 mEq/L; potassium elevations>6.2 mEq/L ([3]; Part 1): No potassium elevations>6.2 mEq/L were recorded; share of patients receiving baxdrostat with potassium>6 mEq/L ([3]; Part 1): ~1.6%; treatment emergent SAEs ([3]; Part 1): two treatment emergent SAEs (2 patients) and neither were deemed related to baxdrostat; patients with isolated instances of moderately elevated potassium>6 mEq/L ([3]; Part 1, all baxdrostat doses): Three; AESI, % [3, 6]: 1.6%; AESI, e - Number of events [3, 6]: 1; AESI, n - Number of subjects [3, 6]: 1; SAEs, % [3, 6]: 0.0%; SAEs, e - Number of events [3, 6]: 0; SAEs, n - Number of subjects [3, 6]: 0; TEAEs Drug-Related, % [3, 6]: 6.3%; TEAEs Drug-Related, e - Number of events [3, 6]: 6; TEAEs Drug-Related, n - Number of subjects [3, 6]: 4; TEAEs Leading to death, % [3, 6]: 0.0%; TEAEs Leading to death, e - Number of events [3, 6]: 0; TEAEs Leading to death, n - Number of subjects [3, 6]: 0; TEAEs Leading to dosing discontinuation, % [3, 6]: 1.6%; TEAEs Leading to dosing discontinuation, e - Number of events [3, 6]: 1; TEAEs Leading to dosing discontinuation, n - Number of subjects [3, 6]: 1; TEAEs Leading to study discontinuation, % [3, 6]: 1.6%; TEAEs Leading to study discontinuation, e - Number of events [3, 6]: 1; TEAEs Leading to study discontinuation, n - Number of subjects [3, 6]: 1; TEAEs, % [3, 6]: 28.6%; TEAEs, e - Number of events [3, 6]: 30; TEAEs, n - Number of subjects [3, 6]: 18; AESI, % [3, 7]: 1.6%; AESI, e - Number of events [3, 7]: 1; AESI, n - Number of subjects [3, 7]: 1; SAEs, % [3, 7]: 1.6%; SAEs, e - Number of events [3, 7]: 1; SAEs, n - Number of subjects [3, 7]: 1; TEAEs Drug-Related, % [3, 7]: 9.7%; TEAEs Drug-Related, e - Number of events [3, 7]: 10; TEAEs Drug-Related, n - Number of subjects [3, 7]: 6; TEAEs Leading to death, % [3, 7]: 0.0%; TEAEs Leading to death, e - Number of events [3, 7]: 0; TEAEs Leading to death, n - Number of subjects [3, 7]: 0; TEAEs Leading to dosing discontinuation, % [3, 7]: 3.2%; TEAEs Leading to dosing discontinuation, e - Number of events [3, 7]: 2; TEAEs Leading to dosing discontinuation, n - Number of subjects [3, 7]: 2; TEAEs Leading to study discontinuation, % [3, 7]: 0.0%; TEAEs Leading to study discontinuation, e - Number of events [3, 7]: 0; TEAEs Leading to study discontinuation, n - Number of subjects [3, 7]: 0; TEAEs, % [3, 7]: 30.6%; TEAEs, e - Number of events [3, 7]: 42; TEAEs, n - Number of subjects [3, 7]: 19; AESI, % [3, 8]: 6.7%; AESI, e - Number of events [3, 8]: 4; AESI, n - Number of subjects [3, 8]: 4; SAEs, % [3, 8]: 1.7%; SAEs, e - Number of events [3, 8]: 1; SAEs, n - Number of subjects [3, 8]: 1; TEAEs Drug-Related, % [3, 8]: 10.0%; TEAEs Drug-Related, e - Number of events [3, 8]: 8; TEAEs Drug-Related, n - Number of subjects [3, 8]: 6; TEAEs Leading to death, % [3, 8]: 1.7%; TEAEs Leading to death, e - Number of events [3, 8]: 1; TEAEs Leading to death, n - Number of subjects [3, 8]: 1; TEAEs Leading to dosing discontinuation, % [3, 8]: 3.3%; TEAEs Leading to dosing discontinuation, e - Number of events [3, 8]: 2; TEAEs Leading to dosing discontinuation, n - Number of subjects [3, 8]: 2; TEAEs Leading to study discontinuation, % [3, 8]: 1.7%; TEAEs Leading to study discontinuation, e - Number of events [3, 8]: 1; TEAEs Leading to study discontinuation, n - Number of subjects [3, 8]: 1; TEAEs, % [3, 8]: 23.3%; TEAEs, e - Number of events [3, 8]: 27; TEAEs, n - Number of subjects [3, 8]: 14; hyperkalemia leading to trial discontinuation ([3]; active Baxdrostat groups): No instances of hyperkalemia led to trial discontinuation; Diarrhea, n (%) ([4]; Total (n = 33)): 1 (3.0) n (%); Metabolic encephalopathy, n (%) ([4]; Total (n = 33)): 1 (3.0) n (%); Subjects with any TEAEs, n (%) ([4]; Total (n = 33)): 2 (6.1) n (%); Tremor, n (%) ([4]; Total (n = 33)): 1 (3.0) n (%); Diarrhea, n (%) [4, 9]: 1 (10.0) n (%); Metabolic encephalopathy, n (%) [4, 9]: 0 (0.0) n (%); Subjects with any TEAEs, n (%) [4, 9]: 1 (10.0) n (%); Tremor, n (%) [4, 9]: 0 (0.0) n (%); Diarrhea, n (%) ([4]; kidney failure (n = 12)): 0 (0.0) n (%); Subjects with any TEAEs, n (%) ([4]; kidney failure (n = 12)): 1 (8.3) n (%); Metabolic encephalopathy, n (%) ([4]; kidney failure (n = 12), considered severe and unrelated to the study drug): 1 (8.3) n (%); Tremor, n (%) ([4]; kidney failure (n = 12), unrelated to the study drug): 1 (8.3) n (%); Diarrhea, n (%) [4, 10]: 0 (0.0) n (%); Metabolic encephalopathy, n (%) [4, 10]: 0 (0.0) n (%); Subjects with any TEAEs, n (%) [4, 10]: 0 (0.0) n (%); Tremor, n (%) [4, 10]: 0 (0.0) n (%); deaths and drug-related treatment-emergent adverse events [4, 11]: no deaths and only one mild drug-related treatment-emergent adverse event (diarrhea); laboratory values, vital signs, physical examinations, ECGs [4, 11]: no clinically meaningful changes; plasma levels of baxdrostat vs dose ([5]; 0.5 to 5.0 mg once daily): increased proportionally with ascending doses; time of peak concentrations after dosing ([5]; 0.5 to 5.0 mg once daily): ≤ 4 h; half-life ([5]; human, plasma, oral, 0.5 to 5.0 mg once daily): 26 to 31 h; absorption ([5]; oral, healthy subjects): rapidly absorbed
